One assay concerns HCT116 MTAP−/−. In words: Inhibition of cellular proliferation, 4 days, Cell Titer Glo, HCT116 MTAP−/−. Type of assay: cell-based. Particulars: Homo sapiens, HCT-116, 96 h, IC50 bin with Max Inh., read-out: 4 Day Relative Growth Inhibition (MTAP −/−). The essentials: (§1)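 IC50 derived from blank-corrected ATP luminescence (Cell Titer Glo) expressed relative to within-plate 0.2% DMSO wells. Compound, as a 10-point 3-fold series, was added 24 h after seeding the MTAP+/+ or MTAP−/− HCT116 cells and incubated 4 days at 37° C./5% CO2.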

Another assay deals with T1, MAT2A homodimer (Homo sapiens, UniProt P31153).
T1 construct: inferred from Ni sepharose purification with imidazole elution; made in house; host or cells: Sf9 insect cells, baculovirus (Bac to Bac, pFASTBAC1)
Kind of assay: MAT2A inhibition (biochemical, liberated phosphate, PiColorLock Gold). The settings on record: recombinant MAT2A homodimer; IC50 bin with Max Inh.; read-out: Enzyme Inhibition Bin. The essentials:
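Enzyme at 4 μg/mL and compound equilibrated 60 min at 25 °C, then 60 min reaction after adding substrate mix (500 μM ATP, 400 μM methionine). Released phosphate quantified by colorimetric kit against a phosphate standard curve to give IC50. Secondary format used 1 μg/mL enzyme with 5 h incubation.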

Assay [1] relates to SAM in HCT116 human colon carcinoma cell line with MTAP gene deleted (MTAP −/−). In words: Cellular assay of target engagement (SAM), LC-MS/MS, 72 hrs. The assay is classed as cell-based. The settings on record: HCT-116, IC50 bin with Max Inh., read-out: Cell 72 h SAM Inhibition (MTAP −/−). The essentials: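 SAM levels were quantified by LC-MS/MS (m/z 399.2→250.1, d3-SAM internal standard) from cold methanol/acetic acid extracts, yielding IC50. Compound was applied as a 10-point 3-fold series for 72 hrs to MTAP −/− HCT116 cells seeded 24 hours before.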

In a further assay the test system is HCT116 MTAP+/+. Kind of assay: Inhibition of cellular proliferation, 4 days, Cell Titer Glo, HCT116 MTAP+/+. The settings on record: Homo sapiens, HCT-116, 96 h, IC50 bin with Max Inh., read-out: 4 Day Relative Growth Inhibition (MTAP +/+). Type of assay: cell-based. The essentials: as §1
On the technique in general: ATP-based viability assays read luminescence as a measure of living cells.

T1 sequence (P31153 whole entry): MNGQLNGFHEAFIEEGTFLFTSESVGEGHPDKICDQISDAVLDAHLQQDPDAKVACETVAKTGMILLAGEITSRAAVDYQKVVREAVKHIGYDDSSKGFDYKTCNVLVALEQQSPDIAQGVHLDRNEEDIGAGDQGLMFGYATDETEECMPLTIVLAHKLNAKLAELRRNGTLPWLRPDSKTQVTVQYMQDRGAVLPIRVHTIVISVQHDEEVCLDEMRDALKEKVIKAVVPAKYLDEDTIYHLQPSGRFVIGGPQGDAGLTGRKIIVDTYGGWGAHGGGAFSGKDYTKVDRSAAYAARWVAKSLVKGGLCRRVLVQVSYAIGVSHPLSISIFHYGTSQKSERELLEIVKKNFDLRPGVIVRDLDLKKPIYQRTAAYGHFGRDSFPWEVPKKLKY

As to `[2H]C([2H])([2H])n1cc2cc(-n3nc4c(C(=O)NC)cn(CC5CC5)c4c(-c4ccc(C5CC5)nc4)c3=O)ccc2n1` [Example 172, 5-(cyclopropylmethyl)-4-(6-cyclopropylpyridin-3-yl)-N-methyl-2-(2-(methyl-d3)-2H-indazol-5-yl)-3-oxo-3,5-dihydro-2H-pyrrolo[3,2-c]pyridazine-7-carboxamide], the IC50 in the assay on HCT116 MTAP−/− is < 100 nM; on MAT2A homodimer, < 100 nM; in assay [1], < 100 nM; in the assay on HCT116 MTAP+/+, > 1000 nM.
With `[2H]C([2H])([2H])Oc1ccc(-c2c(=O)n(-c3ccc4nn(C)cc4c3)nc3c(C(N)=O)cn(CC4CC4)c23)cc1` [Example 173, 5-(cyclopropylmethyl)-4-(4-(methoxy-d3)phenyl)-2-(2-methyl-2H-indazol-5-yl)-3-oxo-3,5-dihydro-2H-pyrrolo[3,2-c]pyridazine-7-carboxamide], the IC50 in the assay on HCT116 MTAP−/− was < 100 nM; on MAT2A homodimer, < 100 nM; in assay [1], < 100 nM; with HCT116 MTAP+/+, > 1000 nM.
In the case of `[2H]C([2H])([2H])Oc1ccc(-c2c(=O)n(-c3ccc4nn(C)cc4c3)nc3c(C(=O)NC)cn(CC4CC4)c23)cc1` [Example 174, 5-(cyclopropylmethyl)-4-(4-(methoxy-d3)phenyl)-N-methyl-2-(2-methyl-2H-indazol-5-yl)-3-oxo-3,5-dihydro-2H-pyrrolo[3,2-c]pyridazine-7-carboxamide], the IC50 in the assay on HCT116 MTAP−/− is < 100 nM; on MAT2A homodimer it was < 100 nM; in assay [1] it was < 100 nM; in the assay with HCT116 MTAP+/+ it was 100 to 1000 nM.
As to `Cc1ccc(-c2c(=O)n(-c3ccc4nn(C)cc4c3)nc3c(C(N)=O)cn(CC4CC4)c23)cn1` [Example 175, 5-(cyclopropylmethyl)-2-(2-methyl-2H-indazol-5-yl)-4-(6-methylpyridin-3-yl)-3-oxo-3,5-dihydro-2H-pyrrolo[3,2-c]pyridazine-7-carboxamide], the IC50 in the assay with HCT116 MTAP−/− is 100 to 1000 nM; on MAT2A homodimer it was < 100 nM; in assay [1], 100 to 1000 nM; in the assay with HCT116 MTAP+/+, > 1000 nM.
Consider `CNC(=O)c1cn(CC2CC2)c2c(-c3ccc(OC)cc3)c(=O)n(-c3ccc4nn(C)cc4c3)nc12` [Example 176, 5-(cyclopropylmethyl)-4-(4-methoxyphenyl)-N-methyl-2-(2-methyl-2H-indazol-5-yl)-3-oxo-3,5-dihydro-2H-pyrrolo[3,2-c]pyridazine-7-carboxamide], for which the IC50 was < 100 nM in the assay on HCT116 MTAP−/−, < 100 nM on MAT2A homodimer, < 100 nM in assay [1] and 100 to 1000 nM in the assay with HCT116 MTAP+/+.
For `CNC(=O)c1cn(CC2CC2)c2c(-c3ccc(C)nc3)c(=O)n(-c3ccc4nn(C)cc4c3)nc12` [Example 177, 5-(cyclopropylmethyl)-N-methyl-2-(2-methyl-2H-indazol-5-yl)-4-(6-methylpyridin-3-yl)-3-oxo-3,5-dihydro-2H-pyrrolo[3,2-c]pyridazine-7-carboxamide], the IC50 was 100 to 1000 nM in the assay on HCT116 MTAP−/−, < 100 nM at MAT2A homodimer, < 100 nM in assay [1] and > 1000 nM with HCT116 MTAP+/+.
As for `CN(C)S(=O)(=O)c1cn(CC2CC2)c2c(-c3ccc(C4CC4)nc3)c(=O)n(-c3ccc4nn(C)cc4c3)nc12` [Example 178, 5-(cyclopropylmethyl)-4-(6-cyclopropylpyridin-3-yl)-N,N-dimethyl-2-(2-methyl-2H-indazol-5-yl)-3-oxo-3,5-dihydro-2H-pyrrolo[3,2-c]pyridazine-7-sulfonamide], the IC50 in the assay with HCT116 MTAP−/− was > 1000 nM; on MAT2A homodimer, 100 to 1000 nM; in assay [1] it was > 1000 nM; in the assay with HCT116 MTAP+/+ it was > 1000 nM.
Regarding `Cn1cc2cc(-n3nc4c(S(N)(=O)=O)cn(CC5CC5)c4c(-c4ccc(C5CC5)cc4)c3=O)ccc2n1` [Example 180, 5-(cyclopropylmethyl)-4-(4-cyclopropylphenyl)-2-(2-methyl-2H-indazol-5-yl)-3-oxo-3,5-dihydro-2H-pyrrolo[3,2-c]pyridazine-7-sulfonamide], the IC50 in the assay on HCT116 MTAP−/− was < 100 nM; at MAT2A homodimer, < 100 nM; in assay [1], < 100 nM; in the assay on HCT116 MTAP+/+ it was > 1000 nM.

These data come from patent US20220169654A1, “New Organic Compounds” (Servier Pharmaceuticals LLC, priority 2020, published 2022).
